The values below come from patent publication US20100267697A1, “ION CHANNEL MODULATORS” (Wyeth, priority 2006, published 2010).

SMILES strings stand for the structures. Counter-ions that a name gives are not always drawn. Like-named read-outs stand apart in the source and are kept apart here. Some results are limits rather than exact numbers.

For the test, the target named is T1, Cav2.2 (Homo sapiens, UniProt Q00975).
T1 construct: expressed in transfected cells; host or cells: HEK-293T/17 (transient, FuGENE 6)
T1 sequence (Q00975 whole entry): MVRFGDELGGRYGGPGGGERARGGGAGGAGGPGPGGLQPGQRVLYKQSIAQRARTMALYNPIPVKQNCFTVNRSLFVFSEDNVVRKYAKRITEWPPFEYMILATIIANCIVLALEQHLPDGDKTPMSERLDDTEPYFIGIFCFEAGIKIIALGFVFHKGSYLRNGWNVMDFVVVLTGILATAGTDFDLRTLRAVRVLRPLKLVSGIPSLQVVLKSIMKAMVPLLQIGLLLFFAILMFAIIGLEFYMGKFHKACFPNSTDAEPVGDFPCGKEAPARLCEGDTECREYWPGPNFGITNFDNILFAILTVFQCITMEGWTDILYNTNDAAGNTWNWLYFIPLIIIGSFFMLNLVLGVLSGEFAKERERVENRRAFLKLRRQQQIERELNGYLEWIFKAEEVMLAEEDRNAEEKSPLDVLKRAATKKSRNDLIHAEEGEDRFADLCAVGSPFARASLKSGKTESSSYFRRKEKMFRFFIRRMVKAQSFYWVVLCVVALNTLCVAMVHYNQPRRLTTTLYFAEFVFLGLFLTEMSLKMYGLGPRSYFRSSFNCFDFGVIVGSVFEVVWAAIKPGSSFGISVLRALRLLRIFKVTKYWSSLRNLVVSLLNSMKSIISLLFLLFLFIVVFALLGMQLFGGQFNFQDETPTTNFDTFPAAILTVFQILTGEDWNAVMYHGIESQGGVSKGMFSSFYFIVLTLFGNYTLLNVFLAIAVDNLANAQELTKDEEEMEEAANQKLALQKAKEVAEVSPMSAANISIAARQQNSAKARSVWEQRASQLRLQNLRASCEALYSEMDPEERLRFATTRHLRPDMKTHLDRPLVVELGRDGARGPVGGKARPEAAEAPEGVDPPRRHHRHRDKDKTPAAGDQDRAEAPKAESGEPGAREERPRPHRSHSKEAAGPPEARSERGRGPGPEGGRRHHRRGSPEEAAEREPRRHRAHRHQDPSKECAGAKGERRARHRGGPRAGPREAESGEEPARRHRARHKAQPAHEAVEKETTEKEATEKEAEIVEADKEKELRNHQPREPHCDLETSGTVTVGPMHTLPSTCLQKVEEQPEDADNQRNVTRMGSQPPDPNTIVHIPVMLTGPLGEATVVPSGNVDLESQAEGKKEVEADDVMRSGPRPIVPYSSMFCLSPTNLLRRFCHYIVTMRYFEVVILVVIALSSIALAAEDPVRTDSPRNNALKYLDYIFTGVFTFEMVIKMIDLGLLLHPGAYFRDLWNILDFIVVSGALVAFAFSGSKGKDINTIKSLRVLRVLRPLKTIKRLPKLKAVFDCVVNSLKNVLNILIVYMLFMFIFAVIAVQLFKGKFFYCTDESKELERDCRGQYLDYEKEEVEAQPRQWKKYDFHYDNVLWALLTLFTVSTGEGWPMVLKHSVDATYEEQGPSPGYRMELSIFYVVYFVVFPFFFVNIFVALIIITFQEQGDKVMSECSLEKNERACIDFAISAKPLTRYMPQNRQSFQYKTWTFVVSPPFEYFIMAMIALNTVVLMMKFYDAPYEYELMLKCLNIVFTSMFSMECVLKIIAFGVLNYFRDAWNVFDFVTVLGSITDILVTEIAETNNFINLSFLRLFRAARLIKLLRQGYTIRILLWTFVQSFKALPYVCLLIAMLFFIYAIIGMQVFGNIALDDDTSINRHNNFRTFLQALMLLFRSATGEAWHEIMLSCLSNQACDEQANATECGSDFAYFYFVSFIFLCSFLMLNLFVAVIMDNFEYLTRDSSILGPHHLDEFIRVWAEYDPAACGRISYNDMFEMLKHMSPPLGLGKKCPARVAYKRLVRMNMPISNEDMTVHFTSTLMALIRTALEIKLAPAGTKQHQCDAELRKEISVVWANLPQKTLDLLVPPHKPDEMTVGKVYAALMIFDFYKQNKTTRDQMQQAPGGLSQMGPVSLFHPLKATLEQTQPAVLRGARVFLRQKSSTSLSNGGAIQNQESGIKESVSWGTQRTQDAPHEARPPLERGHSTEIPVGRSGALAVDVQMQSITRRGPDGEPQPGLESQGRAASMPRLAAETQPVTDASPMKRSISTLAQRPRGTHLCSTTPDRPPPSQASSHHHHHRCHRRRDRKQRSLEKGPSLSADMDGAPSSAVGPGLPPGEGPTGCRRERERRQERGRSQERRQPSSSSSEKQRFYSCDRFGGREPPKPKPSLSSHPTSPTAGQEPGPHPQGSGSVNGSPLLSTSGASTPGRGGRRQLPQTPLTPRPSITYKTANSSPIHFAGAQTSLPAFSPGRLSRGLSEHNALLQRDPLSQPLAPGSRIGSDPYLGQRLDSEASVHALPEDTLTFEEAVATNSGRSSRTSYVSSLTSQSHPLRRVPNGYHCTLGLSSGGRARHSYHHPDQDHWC
T1 sequence (P54284 whole entry partner): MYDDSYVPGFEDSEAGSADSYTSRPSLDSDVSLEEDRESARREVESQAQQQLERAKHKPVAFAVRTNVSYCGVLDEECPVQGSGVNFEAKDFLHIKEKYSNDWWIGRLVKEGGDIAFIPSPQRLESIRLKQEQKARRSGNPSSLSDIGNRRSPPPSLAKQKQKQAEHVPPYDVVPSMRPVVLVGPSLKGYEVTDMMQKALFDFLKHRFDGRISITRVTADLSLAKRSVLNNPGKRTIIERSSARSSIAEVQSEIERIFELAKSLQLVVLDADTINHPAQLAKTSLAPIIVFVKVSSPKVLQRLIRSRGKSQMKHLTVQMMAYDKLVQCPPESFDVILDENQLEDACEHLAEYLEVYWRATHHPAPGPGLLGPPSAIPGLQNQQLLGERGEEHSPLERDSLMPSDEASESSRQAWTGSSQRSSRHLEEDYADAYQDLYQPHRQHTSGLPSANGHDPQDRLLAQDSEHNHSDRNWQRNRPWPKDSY
T1 sequence (P54289 25-946 partner limits assumed): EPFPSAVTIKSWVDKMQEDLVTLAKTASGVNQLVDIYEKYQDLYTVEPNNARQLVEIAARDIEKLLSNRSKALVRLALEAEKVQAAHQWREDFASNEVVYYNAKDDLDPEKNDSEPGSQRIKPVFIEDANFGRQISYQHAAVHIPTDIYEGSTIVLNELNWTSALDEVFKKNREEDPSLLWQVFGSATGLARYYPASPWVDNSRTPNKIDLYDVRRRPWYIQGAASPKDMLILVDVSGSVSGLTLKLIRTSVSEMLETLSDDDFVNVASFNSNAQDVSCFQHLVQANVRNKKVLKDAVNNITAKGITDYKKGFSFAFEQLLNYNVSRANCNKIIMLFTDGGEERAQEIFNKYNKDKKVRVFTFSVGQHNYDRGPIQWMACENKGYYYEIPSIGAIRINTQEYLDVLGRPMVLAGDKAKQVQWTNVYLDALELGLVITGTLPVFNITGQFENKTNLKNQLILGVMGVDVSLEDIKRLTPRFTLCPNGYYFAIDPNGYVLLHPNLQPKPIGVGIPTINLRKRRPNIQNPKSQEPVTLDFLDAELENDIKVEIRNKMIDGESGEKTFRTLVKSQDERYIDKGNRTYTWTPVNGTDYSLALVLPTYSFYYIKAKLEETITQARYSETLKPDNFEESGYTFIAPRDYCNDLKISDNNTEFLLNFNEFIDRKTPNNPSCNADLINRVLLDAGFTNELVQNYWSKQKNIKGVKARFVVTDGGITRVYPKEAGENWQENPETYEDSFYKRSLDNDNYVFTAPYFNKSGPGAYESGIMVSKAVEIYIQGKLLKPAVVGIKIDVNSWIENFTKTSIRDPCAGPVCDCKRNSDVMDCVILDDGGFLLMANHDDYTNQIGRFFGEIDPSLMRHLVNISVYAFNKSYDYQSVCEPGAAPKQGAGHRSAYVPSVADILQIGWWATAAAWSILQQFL
T1 sequence (P54289 947-1103 partner limits assumed): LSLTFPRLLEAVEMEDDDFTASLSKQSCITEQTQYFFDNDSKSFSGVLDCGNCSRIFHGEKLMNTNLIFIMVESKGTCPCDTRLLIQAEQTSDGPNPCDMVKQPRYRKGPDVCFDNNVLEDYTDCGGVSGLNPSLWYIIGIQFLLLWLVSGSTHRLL
Kind of test: HEK assay (whole-cell patch clamp, transiently transfected HEK-293T/17 cells, pulses P1 and P5). The following applies: holding potential −100 mV. In kind it is cell-based. On the procedure:
HEK-293T/17 cells were transiently transfected in a similar manner as described in FuGENE 6 Package Insert Version 7, April 2002, Roche Applied Science, Indianapolis, Ind. The cells were plated at 2.5×10^5 cells in 2 mL in a 6-well plate, incubated for one night, and achieved a ˜30-40% confluence. In a small sterile tube, sufficient serum-free medium was added as diluent for FuGENE Transfection Reagent (Roche Applied Science, Indianapolis, Ind.) to a total volume of 100 μL. To this medium was added 3 μL of FuGENE 6 Reagent. The mixture was tapped gently to mix. To the prediluted FuGENE 6 Reagent was added 2 μg of DNA solution (0.8-2.0 μg/μL). The DNA/Fugene 6 mixture was gently pipeted to mix the contents and incubated for about 15 minutes at room temperature. The complex mixture was then added to the HEK-293T/17 cells, distributed around the well, and swirled to ensure even dispersal. The cells were returned to the incubator for 24 hours. The transfected cells were then replated at density 2.5×10^5 in a 35 mm dish with 5 glass coverslips and grew in low serum (1%) media for 24 hours. Coverslips with isolated cells were then transferred into a chamber, and calcium channel (e.g., L-type, N-type, etc.) current or other currents for counter screening were recorded from the transiently transfected HEK-293T/17 cells.
The whole-cell voltage clamp configuration of the patch clamp technique was employed to evaluate voltage-dependent calcium currents essentially as described by Thompson and Wong (1991), J. Physiol., 439: 671-689, the entire disclosure of which is herein incorporated by reference. To record calcium channel (e.g., L-type, N-type, etc.) currents for evaluation of inhibitory potency of compounds (steady-state concentration-response analysis), five pulses of 20-30 ms voltage steps to about +10 mV (the peak of the current voltage relationship) were delivered at five Hz every 30 second from a holding potential at −100 mV. In order to obtain an estimate of the degree of use-dependent block of the test compounds, IC50 values were determined at the first and fifth pulse of the train (P1 and P5, respectively, in Table 2). Compound evaluations were carried out essentially as described by Sah D. W. and Bean B. P. (1994), Mol. Pharmacol., 45:84-92, the entire disclosure of which is herein incorporated by reference.

The mark [1] stands for this setting: fifth pulse (P5) of 5 Hz train, read-out: HEK Cav2.2 P5 IC50.
Where [2] appears, read: first pulse (P1) of 5 Hz train, read-out: HEK Cav2.2 P1 IC50.

As to `O=C(C1CCCO1)N(Cc1ccc(N2CCN(c3ccccn3)CC2)nc1)c1ccc(F)cc1` (centres unmarked) [Compound 109, Tetrahydro-furan-2-carboxylic acid (4-fluorophenyl)-[6-(4-pyridin-2-yl-piperazin-1-yl)-pyridin-3-ylmethyl]-amide], the IC50 under setting [1] was 2.6 µM and the 50% inhibitory concentration (IC50) under setting [2] came out at 13.9 µM.
In the case of `CC(C)(C)C(=O)N(Cc1ccc(N2CCC[C@H]2COc2ccccn2)nc1)c1ccc(F)cc1` [Compound 49, N-(4-Fluorophenyl)-2,2-dimethyl-N-{6-[2-(pyridin-2-yloxymethyl)-pyrrolidin-1-yl]-pyridin-3-ylmethyl}-propionamide], the concentration for half-maximal inhibition (IC50) is, setting by setting: under setting [1], 0.6 µM; under setting [2], 2.3 µM.
In the same order, the values of `CCC(C)(C)C(=O)N(Cc1csc(N2CCOCC2)n1)c1ccc(F)cc1` [Compound 73, N-(4-Fluorophenyl)-2,2-dimethyl-N-(2-morpholin-4-yl-thiazol-4-ylmethyl)-butyramide] are 8.5 µM and 33.8 µM.
Turning to `CC(C)(C)C(=O)N(Cc1ccc(N2CCCC2CO)nc1)c1ccc(F)cc1` (centres unmarked) [Compound 48, N-(4-Fluorophenyl)-N-[6-(2-hydroxymethyl-pyrrolidin-1-yl)-pyridin-3-ylmethyl]-2,2-dimethyl-propionamide], the IC50 is, setting by setting: under setting [1], 4.2 µM; under setting [2], 19.8 µM.
Turning to `Cc1ccc(OCCN(C)c2ccc(CN(C(=O)C(C)(C)C)c3ccc(F)cc3)cn2)nc1` [Compound 39, N-(4-Fluorophenyl)-2,2-dimethyl-N-(6-{methyl-[2-(5-methyl-pyridin-2-yloxy)-ethyl]-amino}-pyridin-3-ylmethyl)-propionamide], the IC50 amounted to 0.5 µM under setting [1] and 1 µM under setting [2].
In the case of `CN(c1ccc(F)cc1)c1nc(CN(C(=O)C(C)(C)C)c2ccc(F)cn2)cs1` [Compound 82, N-{2-[(4-Fluorophenyl)-methyl-amino]-thiazol-4-ylmethyl}-N-(5-fluoro-pyridin-2-yl)-2,2-dimethyl-propionamide], the IC50 reads like this: under setting [1], 2.2 µM; under setting [2], 12.1 µM.
For the compound `CN1CCN(c2ncc(CN(C(=O)OC(C)(C)C)c3ccc(F)cc3)s2)CC1` [Compound 102, (4-Fluorophenyl)-[2-(4-methyl-piperazin-1-yl)-thiazol-5-ylmethyl]-carbamic acid tert-butyl ester], the 50% inhibitory concentration (IC50) under setting [1] turned out to be 9.6 µM.
For `CN(c1ccc(F)cc1)c1nc(CN(C(=O)C2CCCN2C)c2ccc(F)cc2)cs1` (centres unmarked) [Compound 114, 1-Methyl-pyrrolidine-2-carboxylic acid (4-fluroophenyl)-{2-[(4-fluorophenyl)-methyl-amino]-thiazol-4-ylmethyl]-amide], the IC50 came out at 2.1 µM under setting [1] and 4.8 µM under setting [2].
Regarding `CCN(CC)c1ccc(CN(C(=O)C(C)(C)C)c2ccccc2C(C)C)cn1` [Compound 37, N-(6-Diethylamino-pyridin-3-ylmethyl)-N-(2-isopropyl-phenyl)-2,2-dimethyl-propionamide], the IC50 under setting [1] worked out at 0.7 µM and the concentration for half-maximal inhibition (IC50) under setting [2] turned out to be 1.8 µM.
Taken in the same sequence, the figures for `CN(CCO)c1ccc(CN(C(=O)C(C)(C)C)c2ccc(F)cc2)cn1` [Compound 38, N-(4-Fluorophenyl)-N-{6-[(2-hydroxy-ethyl)-methyl-amino]-pyridin-3-ylmethyl}-2,2-dimethyl-propionamide] were 7.6 µM and 17.1 µM.
Turning to `CCC(C)(C)C(=O)N(Cc1ccc(N2CCN(S(C)(=O)=O)CC2)nc1)c1ccc(F)cc1` [Compound 43, N-(4-Fluorophenyl)-N-[6-(4-methanesulfonyl-piperazin-1-yl)-pyridin-3-ylmethyl]-2,2-dimethyl-butyramide], the IC50 under setting [1] came out at 3 µM and the concentration for half-maximal inhibition (IC50) under setting [2] worked out at 10.2 µM.
Taken in the same sequence, the figures for `CN(C)c1ccc(N(Cc2csc(N3CCCCC3)n2)C(=O)C(C)(C)C)cc1` [Compound 86, N-(4-Dimethylamino-phenyl)-2,2-dimethyl-N-(2-piperidin-1-yl-thiazol-4-ylmethyl)-propionamide] were 3.1 µM and 12.6 µM.
In the same order, the values of `CN(c1ccccc1)c1nc(CN(C(=O)C(C)(C)C)c2ccc(F)cc2)cs1` [Compound 65, N-(4-Fluorophenyl)-2,2-dimethyl-N-[2-(methyl-phenyl-amino)-thiazol-4-ylmethyl]-propionamide] are 0.6 µM and 1.8 µM.
`CCN(CC)c1ccc(CN(C(=O)CCC(C)C)c2ccc(NC)cc2)cc1` [Compound 99, 4-Methyl-pentanoic acid (4-Diethylaminobenzyl)-(4-methylamino-phenyl)-amide]: the half-maximal inhibitory concentration (IC50) runs as follows: under setting [1], < 0.1 µM; under setting [2], 4.3 µM.
On to `CC(C)c1cccc(N(Cc2csc(N3CCCCC3)n2)C(=O)C(C)(C)C)c1` [Compound 71, N-(3-Isopropyl-phenyl)-2,2-dimethyl-N-(2-piperidin-1-yl-thiazol-4-ylmethyl)-propionamide], for which the 50% inhibitory concentration (IC50) came out at 0.5 µM under setting [1] and 2.4 µM under setting [2].
Turning to `CCN(CC)c1ccc(CN(C(=O)CCC(C)C)c2ccc(N(C)C)cc2)cc1` [Compound 91, 4-Methyl-pentanoic acid (4-Diethylaminobenzyl)-(4-dimethylamino-phenyl)-amide], the IC50 is 0.6 µM under setting [1] and 1 µM under setting [2].
Taken in the same sequence, the figures for `CCN(CC)c1cccc(CN(C(=O)C(C)(C)C)c2ccc(F)cc2)n1` [Compound 4, N-(6-diethylamino-pyridin-2-ylmethyl)-N-(4-fluorophenyl)-2,2-dimethyl-propionamide hydrochloride] were 0.8 µM and 2.9 µM.
Taken in the same sequence, the figures for `CC(C)(C)C(=O)N(Cc1csc(-c2ccncc2)n1)c1ccc(F)cc1` [Compound 75, N-(4-Fluorophenyl)-2,2-dimethyl-N-(2-pyridin-4-yl-thiazol-4-ylmethyl)-propionamide] were 11 µM and 47.3 µM.
Taken in the same sequence, the figures for `CCN(CC)c1ccc(N(Cc2csc(N(C)c3ccc(F)cc3)n2)C(=O)C(C)(C)C)cc1` [Compound 88, N-(4-Diethylamino-phenyl)-N-{2-[(4-fluorophenyl)-methyl-amino]-thiazol-4-ylmethyl}-2,2-dimethyl-propionamide] were 0.1 µM and 0.4 µM.
Turning to `CCN(CCc1cccnc1)c1ccc(CN(C(=O)C(C)(C)C)c2ccc(F)cc2)cn1` [Compound 58, N-{6-[Ethyl-(2-pyridin-3-yl-ethyl)-amino]-pyridin-3-ylmethyl}-N-(4-fluorophenyl)-2,2-dimethyl-propionamide], the IC50 by setting is: under setting [1], 0.9 µM; under setting [2], 4.9 µM.
In the same order, the values of `CC(C)(C)C(=O)N(Cc1ccc(N2CC[C@H](O)C2)nc1)c1ccc(F)cc1` [Compound 51, N-(4-Fluorophenyl)-N-[6-(3-hydroxy-pyrrolidin-1-yl)-pyridin-3-ylmethyl]-2,2-dimethyl-propionamide] are 12.8 µM and 34 µM.
In the same order, the values of `CN(CCOCc1cccnc1)c1ccc(CN(C(=O)C(C)(C)C)c2ccc(F)cc2)cn1` [Compound 47, N-(4-Fluorophenyl)-2,2-dimethyl-N-(6-{methyl-[2-(pyridin-3-ylmethoxy)-ethyl]-amino}-pyridin-3-ylmethyl)-propionamide] are 1.6 µM and 9.5 µM.
For `CC(C)(C)C(=O)N(Cc1csc(N2CCCC2)n1)c1ccc(F)cc1` [Compound 77, N-(4-Fluorophenyl)-2,2-dimethyl-N-(2-pyrrolidin-1-yl-thiazol-4-ylmethyl)-propionamide], the IC50 stood at 2.6 µM under setting [1] and 19.1 µM under setting [2].
Taken in the same sequence, the figures for `CNC1CCN(c2ccc(CN(C(=O)C(C)(C)C)c3ccc(F)cc3)cn2)C1` (centres unmarked) [Compound 56, N-(4-Fluorophenyl)-2,2-dimethyl-N-[6-(3-methylamino-pyrrolidin-1-yl)-pyridin-3-ylmethyl]-propionamide] were 2.8 µM and 6 µM.
Consider `CC(CC(=O)N(Cc1ccc(N(C)CCc2ccccn2)nc1)c1ccc(F)cc1)C(F)(F)F` (centres unmarked) [Compound 23, 4,4,4-Trifluoro-N-(4-fluorophenyl)-3-methyl-N-{6-[methyl-(2-pyridin-2-yl-ethyl)-amino]-pyridin-3-ylmethyl}-butyramide], for which, under setting [1], the IC50 is 1.1 µM.
On to `Cc1ccc(OCCN(C)c2ccc(CN(C(=O)C(C)(C)C)c3ccc(F)cc3)cn2)nn1` [Compound 40, N-(4-Fluorophenyl)-2,2-dimethyl-N-(6-{methyl-[2-(6-methyl-pyridazin-3-yloxy)-ethyl]-amino}-pyridin-3-ylmethyl)-propionamide], for which the IC50 by setting is: under setting [1], 11.2 µM; under setting [2], 21 µM.
